How the values were obtained:
[1] = test system: T-Rex 293 cell line SC3 cells having increased expression of androgen receptor protein due to exposure to doxycycline; experiment: Cellular growth inhibition, T-Rex 293 SC3 cells with doxycycline-induced androgen receptor (CellTiter-Glo 2.0, 72 hours); assay type: cell-based; conditions: for GI50: T-Rex 293 SC3 cells with 10 ng/ml doxycycline (increased androgen receptor expression), 72 hours, CellTiter-Glo 2.0
Description: (§1) Ability of the test compounds to inhibit proliferation of the foregoing cell types was evaluated according to the procedures set forth below.
(§2) The doxycycline-inducible androgen receptor protein expressing cell line was established using the following protocol: T-Rex 293 cells were purchased from Invitrogen (Cat #R71007) and transfected using Lipofectamine 2000 with the wild-type androgen receptor protein sequence cloned into the pcDNA4/TO vector. Transfected cells were selected using 400 μg/mL Zeocin (Invitrogen Cat #R25001). Following selection, single clones were raised and maintained in Dulbecco's Modified Eagle Medium (DMEM) supplemented with 10% w/w Tetracycline-free fetal bovine serum (FBS) and 250 μg/mL Zeocin. Clones were analyzed for expression of androgen receptor protein in the presence and absence of 10 ng/ml doxycycline (Sigma Cat #D9891), and a single doxycycline-inducible clone (hereinafter “SC3”) was selected for use in downstream assays.
(§3) The SC3 cells were seeded on poly-D-lysine coated, black clear-bottom 384-well plates at 2500/well, in 25 μL Phenol Red Free Dulbecco's Modified Eagle Medium (DMEM) supplemented with 10% w/w charcoal-dextran treated fetal bovine serum (FBS) and 1% w/w pen-strep, with or without 10 ng/ml doxycycline. Pen-Strep is a commercially available mixture of penicillin G and streptomycin, which is used in mammalian cell culture media to prevent bacterial contamination. Phenol Red Free Dulbecco's Modified Eagle Medium (DMEM) supplemented with 10% w/w charcoal-dextran treated fetal bovine serum (FBS) and 1% w/w pen-strep, with or without 10 ng/mL doxycycline is herein referred to as Treatment Medium. Following seeding of cells in the plates, the plates were spun at 300×g for 30 seconds, then equilibrated to room temperature for 30 minutes, and then deposited in a humidified tissue culture incubator maintained at 37° C. with 5% CO2.
(§4) At 24 hours after seeding of the cells, dilutions of test compound were prepared in DMSO and dissolved in Treatment Medium, to achieve a final DMSO concentration of 0.5% w/w, thereby providing the Test Compound Solution. A 25 μL aliquot of the Test Compound Solution was added to cells in the well plates. An equal volume of a solution containing DMSO and Treatment Medium was used as a negative control. Following treatment of cells with Test Compound Solution or said equal volume of a solution containing DMSO and Treatment Medium, the plates were spun at 300×g for 30 seconds, and then left in an incubator for 72 hours.
(§5) At the end of the treatment duration, cell viability was quantified with CellTiter-Glo 2.0 reagent (Promega Cat #G9243). For this purpose, plates were equilibrated to room temperature for 30 minutes, and then 25 μL of CellTiter-Glo 2.0 reagent was added to cells in the plate wells. Plates were then agitated on a shaker for two minutes at 500 rpm and subsequently incubated at room temperature for 10 minutes. Following incubation, the plates were spun at 3000×g for 30 seconds, then sealed with an optical adhesive cover, and luminescence readings were measured with an En Vision Plate Reader.
(§6) Data was normalized using zero luminescence for baseline. A four-parameter non-linear regression curve fit was applied to dose-response data in GraphPad Prism data analysis software to determine the half-maximal growth inhibitory concentration (GI50) for each test compound.

[2] = test system: VCaP cells; experiment: Cellular growth inhibition assay for VCaP cells (CellTiter-Glo 2.0, 72 hours); assay type: cell-based, human; conditions: for GI50: CellTiter-Glo 2.0
Description: Exemplary compounds were tested for ability to inhibit the proliferation of VCaP cells. VCap cells are a commercially available human prostate cancer cell line.
VCaP cells were purchased from American Type Cell Culture (ATCC Cat #CRL2876) and then seeded on poly-D-lysine coated, black clear-bottom 384-well plates at 5000/well in 25 μL Dulbecco's Modified Eagle Medium (DMEM) supplemented with 10% w/w Fetal bovine serum (FBS) and 1% w/w Pen-Strep. Pen-Strep is a commercially available mixture of penicillin G and streptomycin, which is used in mammalian cell culture media to prevent bacterial contamination. Dulbecco's Modified Eagle Medium (DMEM) supplemented with 10% w/w fetal bovine serum (FBS) and 1% w/w Pen-Strep is herein referred to as Treatment Medium. Following seeding of cells in the plates, the plates were spun at 300×g for 30 seconds, then equilibrated to room temperature for 30 minutes, and then deposited in a humidified tissue culture incubator maintained at 37° C. with 5% CO2.
as §4, §5, §6

[3] = test system: T-Rex 293 cell line SC3 cells lacking increased expression of androgen receptor protein; experiment: Cellular growth inhibition, T-Rex 293 SC3 cells without doxycycline (CellTiter-Glo 2.0, 72 hours); assay type: cell-based; conditions: T-Rex 293 SC3 cells not exposed to doxycycline (no increased androgen receptor expression)
Description: as §1, §2, §3, §4, §5, §6

Compound | GI50 ([2]; Homo sapiens, VCaP, 72 h) | GI50 ([2]; 72 hours) | Ratio of GI50's ([2]; GI50 of the top compound in the pair divided by GI50 of the lower compound) | GI50 [1] | GI50 ([3]; 72 h) | GI50 [3] | Ratio of GI50's ([1]; GI50 of the top compound in the pair divided by GI50 of the lower compound, T-Rex 293 SC3 cells with doxycycline-induced androgen receptor)
COc1cc(O[C@H]2CC[C@H](NC(=O)c3ccc(N4CCC5(CCC(c6ccc(C7=N[C@@H](C)c8nnc(C)n8-c8sc(C)c(C)c87)cc6)CC5)C4)nn3)CC2)ccc1C#N (some centres unmarked) [Compound I-20] | – | < 500 nM | – | < 500 nM | – | < 500 nM | –
COc1cc(O[C@H]2CC[C@H](NC(=O)c3ccc(N4CCC5(CCC(c6ccc(C7=N[C@@H](C)c8nnc(C)n8-c8sc(C)c(C)c87)cc6)C5)CC4)nn3)CC2)ccc1C#N (some centres unmarked) [Compound I-21] | – | 500 to 1500 nM | – | < 500 nM | – | < 500 nM | –
COc1cc(O[C@H]2CC[C@H](NC(=O)c3ccc(N4CCC5(CCC(c6ccc(C7=N[C@@H](C)c8nnc(C)n8-c8sc(C)c(C)c87)cc6)C5)CC4)nn3)CC2)ccc1C#N (some centres unmarked) [Compound I-22] | 500 to 1500 nM | – | – | < 500 nM | < 500 nM | – | –
COc1cc(O[C@H]2CC[C@H](NC(=O)c3ccc(N4CCC5(CCN(c6ccc(C7=N[C@@H](C)c8nnc(C)n8-c8sc(C)c(C)c87)cc6)C5)CC4)nn3)CC2)ccc1C#N [Compound I-23] | > 3000 nM | – | – | > 3000 nM | < 500 nM | – | –
COCC[C@@H]1N=C(c2ccc(C#CC3CC4(C3)CN(c3ccc(C(=O)NC5CCC(Oc6ccc(C#N)c(OC)c6)CC5)nn3)C4)cc2)c2c(sc(C)c2C)-n2c(C)nnc21 (stereo partly drawn) [Compound I-30, N-[4-(4-cyano-3-methoxy-phenoxy)cyclohexyl]-6-[6-[2-[4-[(9S)-9-(2-methoxyethyl)-4,5,13-trimethyl-3-thia-1,8,11,12-tetrazatricyclo[8.3.0.0^2,6]trideca-2 (6),4,7,10,12-pentaen-7-yl]phenyl]ethynyl]-2-azaspiro[3.3]heptan-2-yl]pyridazine-3-carboxamide] | – | < 500 nM | – | < 500 nM | – | < 500 nM | –
COCC[C@@H]1N=C(c2ccc(C#CC3CC4(C3)CN(c3ccc(C(=O)N[C@H]5CC[C@H](Oc6ccc(C#N)c(OC(F)(F)F)c6)CC5)nn3)C4)cc2)c2c(sc(C)c2C)-n2c(C)nnc21 [Compound I-33] | – | < 500 nM | – | < 500 nM | – | < 500 nM | –

Now from value to compound, other results behind:

GI50 ([2]; Homo sapiens, VCaP, 72 h) | GI50 ([2]; 72 hours) | Ratio of GI50's ([2]; GI50 of the top compound in the pair divided by GI50 of the lower compound) | Compound | GI50 [1] | GI50 ([3]; 72 h) | GI50 [3] | Ratio of GI50's ([1]; GI50 of the top compound in the pair divided by GI50 of the lower compound, T-Rex 293 SC3 cells with doxycycline-induced androgen receptor)
< 500 nM | – | – | COc1cc(O[C@H]2CC[C@H](NC(=O)c3ccc(N4CCC5(CCC(c6ccc(C7=N[C@@H](C)c8nnc(C)n8-c8sc(C)c(C)c87)cc6)CC5)C4)nn3)CC2)ccc1C#N (stereo partly drawn) [Compound I-19, N-[(1r,4r)-4-(4-cyano-3-methoxy-phenoxy)cyclohexyl]-6-[8-[4-[(9S)-4,5,9,13-tetramethyl-3-thia-1,8,11,12-tetrazatricyclo[8.3.0.0^2,6]trideca-2 (6),4,7,10,12-pentaen-7-yl]phenyl]-2-azaspiro[4.5]decan-2-yl]pyridazine-3-carboxamide] | < 500 nM | < 500 nM | – | –
< 500 nM | – | – | COc1cc(O[C@H]2CC[C@H](NC(=O)c3ccc(N4CCCC5(CCC(c6ccc(C7=N[C@@H](C)c8nnc(C)n8-c8sc(C)c(C)c87)cc6)CC5)C4)nn3)CC2)ccc1C#N (some centres unmarked) [Compound I-24] | < 500 nM | 1500 to 3000 nM | – | –
< 500 nM | – | 1 | COc1cc(O[C@H]2CC[C@H](NC(=O)c3ccc(N4CCC5(CC4)CC(Cc4ccc(C6=N[C@@H](Cc7ncco7)c7nnc(C)n7-c7sc(C)c(C)c76)cc4)C5)nn3)CC2)ccc1C#N [Compound I-25, N-[4-(4-cyano-3-methoxy-phenoxy)cyclohexyl]-6-[2-[[4-[(9S)-4,5,13-trimethyl-9-(oxazol-2-ylmethyl)-3-thia-1,8,11,12-tetrazatricyclo[8.3.0.0^2,6]trideca-2 (6),4,7,10,12-pentaen-7-yl]phenyl]methyl]-7-azaspiro[3.5]nonan-7-yl]pyridazine-3-carboxamide] | < 500 nM | < 500 nM | – | 1
< 500 nM | – | – | COC[C@@H]1N=C(c2ccc(C3CCC4(CC3)CCN(c3ccc(C(=O)NC5CCC(Oc6ccc(C#N)c(OC)c6)CC5)nn3)C4)cc2)c2c(sc(C)c2C)-n2c(C)nnc21 (stereo partly drawn) [Compound I-27, N-[4-(4-cyano-3-methoxy-phenoxy)cyclohexyl]-6-[8-[4-[(9R)-9-(methoxymethyl)-4,5,13-trimethyl-3-thia-1,8,11,12-tetrazatricyclo[8.3.0.0^2,6]trideca-2 (6),4,7,10,12-pentaen-7-yl]phenyl]-2-azaspiro[4.5]decan-2-yl]pyridazine-3-carboxamide] | < 500 nM | < 500 nM | – | –
< 500 nM | – | – | COCC[C@@H]1N=C(c2ccc(C3CCC4(CC3)CCN(c3ccc(C(=O)NC5CCC(Oc6ccc(C#N)c(OC)c6)CC5)nn3)C4)cc2)c2c(sc(C)c2C)-n2c(C)nnc21 (stereo partly drawn) [Compound I-29, N-[4-(4-cyano-3-methoxy-phenoxy)cyclohexyl]-6-[8-[4-[(9S)-9-(2-methoxyethyl)-4,5,13-trimethyl-3-thia-1,8,11,12-tetrazatricyclo[8.3.0.0^2,6]trideca-2 (6),4,7,10,12-pentaen-7-yl]phenyl]-2-azaspiro[4.5]decan-2-yl]pyridazine-3-carboxamide] | < 500 nM | < 500 nM | – | –
< 500 nM | – | – | CC[C@@H]1N=C(c2ccc(C#CC3CC4(C3)CN(c3ccc(C(=O)N[C@H]5CC[C@H](Oc6ccc(C#N)c(OC)c6)CC5)nn3)C4)cc2)c2c(sc(C)c2C)-n2c(C)nnc21 [Compound I-31, N-[4-(4-cyano-3-methoxy-phenoxy)cyclohexyl]-6-[6-[2-[4-[(9S)-9-ethyl-4,5,13-trimethyl-3-thia-1,8,11,12-tetrazatricyclo[8.3.0.0^2,6]trideca-2 (6),4,7,10,12-pentaen-7-yl]phenyl]ethynyl]-2-azaspiro[3.3]heptan-2-yl]pyridazine-3-carboxamide] | < 500 nM | < 500 nM | – | –
< 500 nM | – | – | COC[C@@H]1N=C(c2ccc(C#CC3CC4(C3)CN(c3ccc(C(=O)N[C@H]5CC[C@H](Oc6ccc(C#N)c(OC)c6)CC5)nn3)C4)cc2)c2c(sc(C)c2C)-n2c(C)nnc21 [Compound I-32, N-[4-(4-cyano-3-methoxy-phenoxy)cyclohexyl]-6-[6-[2-[4-[(9R)-9-(methoxymethyl)-4,5,13-trimethyl-3-thia-1,8,11,12-tetrazatricyclo[8.3.0.0^2,6]trideca-2 (6),4,7,10,12-pentaen-7-yl]phenyl]ethynyl]-2-azaspiro[3.3]heptan-2-yl]pyridazine-3-carboxamide] | < 500 nM | < 500 nM | – | –
< 500 nM | – | – | COc1cc(O[C@H]2CC[C@H](NC(=O)c3cnc(N4CCC5(CCC(c6ccc(C7=N[C@@H](C)c8nnc(C)n8-c8sc(C)c(C)c87)cc6)CC5)C4)nc3)CC2)ccc1C#N (some centres unmarked) [Compound I-35] | < 500 nM | < 500 nM | – | –
< 500 nM | – | – | COc1cc(O[C@H]2CC[C@H](NC(=O)c3ccc(N4CCC5(CCC(c6ccc(C7=N[C@@H](C)c8nnc(C)n8-c8sc(C)c(C)c87)cc6)CC5)C4)nc3)CC2)ccc1C#N (some centres unmarked) [Compound I-36] | < 500 nM | < 500 nM | – | –

From US12668599B2, “Heterobifunctional compounds and methods of treating disease” (Halda Therapeutics OpCo, Inc., priority 2023, dated 2026)
